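Interpolation was linear, between the two tested concentrations surrounding the appropriate level; five concentrations were tested over 48 hours in 96-well plates. GI50 = concentration required for 50% inhibition of growth. TGI denotes the concentration required for complete inhibition of growth.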
What was measured:
Test in all cases: NCI anticancer screen, dose series, 48 h
[1] = test system: OVCAR-3 ovarian
[2] = test system: BT-549 breast
[3] = test system: MDA-MB-231 breast
[4] = test system: U251 CNS
[5] = test system: SK-MEL-2 melanoma
[6] = test system: A549 NSCLC
[7] = test system: RPMI-8226 leukemia
[8] = test system: MOLT-4 leukemia
[9] = test system: SF-539 CNS
[10] = test system: A498 renal
[11] = test system: SF-268 CNS
[12] = test system: NCI-H460 lung
[13] = test system: MALME-3M melanoma
[14] = test system: T-47D breast
[15] = test system: SW-620 colon
[16] = test system: OVCAR-4 ovarian
[17] = test system: SK-MEL-28 melanoma
[18] = test system: SK-MEL-5 melanoma
[19] = test system: MCF7 breast
[20] = test system: NCI-H23 lung
[21] = test system: SK-OV-3 ovarian
[22] = test system: SF-295 CNS
[23] = test system: HCC-2998 colon
[24] = test system: LOX IMVI melanoma
[25] = test system: TK-10 renal
[26] = test system: UO-31 renal
[27] = test system: ACHN renal
[28] = test system: SR leukemia
[29] = test system: HL-60(TB) leukemia
[30] = test system: CCRF-CEM leukemia
[31] = test system: OVCAR-5 ovarian
[32] = test system: NCI-H522 lung
[33] = test system: HCT-15 colon
[34] = test system: HOP-62 NSCLC
[35] = test system: UACC-257 melanoma
[36] = test system: NCI/ADR-RES ovarian
[37] = test system: SN12C renal
[38] = test system: HT29 colon
[39] = test system: OVCAR-8 ovarian
[40] = test system: PC-3 prostate
[41] = test system: NCI-H226 lung
[42] = test system: M14 melanoma
[43] = test system: CAKI-1 renal
[44] = test system: EKVX NSCLC
[45] = test system: UACC-62 melanoma
[46] = test system: 786-0 renal
[47] = test system: HS 578T breast
[48] = test system: HCT-116 colon
[49] = test system: IGROV1 ovarian
[50] = test system: SNB-19 CNS
[51] = test system: DU-145 prostate
[52] = test system: SNB-75 CNS
[53] = test system: K-562 leukemia
[54] = test system: COLO 205 colon
[55] = test system: MDA-MB-435
[56] = test system: KM12 colon

**Q.** How did the GI50 [1] turn out when `COc1cc(NC(=O)c2ccc(C(F)(F)F)nc2Nc2ccc(Cl)cc2C)cc(OC)c1OC` was run?
**A.** The GI50 was 2.41 µM.

**Q.** And the TGI [1]?
**A.** Its TGI is 13.3 µM.

**Q.** And the GI50 [2]?
**A.** Its GI50 is 10.7 µM.

**Q.** And the TGI [2]?
**A.** The TGI was 26.6 µM.

**Q.** And the GI50 [3]?
**A.** The GI50 was 3.73 µM.

**Q.** And the TGI [3]?
**A.** Its TGI is 14.8 µM.

**Q.** And the GI50 [4]?
**A.** The GI50 was 4.86 µM.

**Q.** What about the TGI [4] of the same compound?
**A.** The TGI was 17.5 µM.

**Q.** And the GI50 [5]?
**A.** The GI50 was 10.3 µM.

**Q.** And the TGI [5]?
**A.** Its TGI is 28.3 µM.

**Q.** What about the GI50 [6] of the same compound?
**A.** Its GI50 is 5.82 µM.

**Q.** What about the TGI [6] of the same compound?
**A.** Its TGI is > 100 µM.

**Q.** And the GI50 [7]?
**A.** The GI50 was 2.96 µM.

**Q.** What about the TGI [7] of the same compound?
**A.** Its TGI is 17.5 µM.

**Q.** And the GI50 [8]?
**A.** Its GI50 is 2.54 µM.

**Q.** What about the TGI [8] of the same compound?
**A.** Its TGI is 18.2 µM.

**Q.** What about the GI50 [9] of the same compound?
**A.** The GI50 was 10.6 µM.

**Q.** And the TGI [9]?
**A.** The TGI was > 100 µM.

**Q.** What about the GI50 [10] of the same compound?
**A.** Its GI50 is 3.9 µM.

**Q.** And the TGI [10]?
**A.** The TGI was 23.8 µM.

**Q.** And the GI50 [11]?
**A.** The GI50 was 6.67 µM.

**Q.** And the TGI [11]?
**A.** The TGI was 28.9 µM.

**Q.** What about the GI50 [12] of the same compound?
**A.** Its GI50 is 3.3 µM.

**Q.** What about the TGI [12] of the same compound?
**A.** Its TGI is 12.9 µM.

**Q.** And the GI50 [13]?
**A.** The GI50 was 4.94 µM.

**Q.** And the TGI [13]?
**A.** The TGI was 24 µM.

**Q.** And the GI50 [14]?
**A.** Its GI50 is 2.47 µM.

**Q.** And the TGI [14]?
**A.** Its TGI is 21.3 µM.

**Q.** What about the GI50 [15] of the same compound?
**A.** The GI50 was 5.92 µM.

**Q.** And the TGI [15]?
**A.** Its TGI is 18.8 µM.

**Q.** And the GI50 [16]?
**A.** Its GI50 is 2.77 µM.

**Q.** What about the TGI [16] of the same compound?
**A.** Its TGI is 25.3 µM.

**Q.** And the GI50 [17]?
**A.** The GI50 was 4.4 µM.

**Q.** What about the TGI [17] of the same compound?
**A.** The TGI was 26.4 µM.

**Q.** What about the GI50 [18] of the same compound?
**A.** The GI50 was 2.95 µM.

**Q.** And the TGI [18]?
**A.** The TGI was 14.9 µM.

**Q.** And the GI50 [19]?
**A.** Its GI50 is 2.39 µM.

**Q.** And the TGI [19]?
**A.** Its TGI is 16.2 µM.

**Q.** And the GI50 [20]?
**A.** The GI50 was 2.2 µM.

**Q.** And the TGI [20]?
**A.** The TGI was 10.6 µM.

**Q.** What about the GI50 [21] of the same compound?
**A.** Its GI50 is 5.15 µM.

**Q.** And the TGI [21]?
**A.** The TGI was 36.1 µM.

**Q.** What about the GI50 [22] of the same compound?
**A.** Its GI50 is 5.36 µM.

**Q.** And the TGI [22]?
**A.** Its TGI is 23.1 µM.

**Q.** What about the GI50 [23] of the same compound?
**A.** The GI50 was 1.89 µM.

**Q.** What about the TGI [23] of the same compound?
**A.** The TGI was 5.61 µM.

**Q.** And the GI50 [24]?
**A.** The GI50 was 3.23 µM.

**Q.** What about the TGI [24] of the same compound?
**A.** Its TGI is 13.5 µM.

**Q.** What about the GI50 [25] of the same compound?
**A.** The GI50 was 5.83 µM.

**Q.** And the TGI [25]?
**A.** Its TGI is 29.1 µM.

**Q.** What about the GI50 [26] of the same compound?
**A.** The GI50 was 2.68 µM.

**Q.** What about the TGI [26] of the same compound?
**A.** The TGI was 17.9 µM.

**Q.** And the GI50 [27]?
**A.** The GI50 was 3.74 µM.

**Q.** And the TGI [27]?
**A.** The TGI was 35.5 µM.

**Q.** And the GI50 [28]?
**A.** Its GI50 is 2.77 µM.

**Q.** What about the TGI [28] of the same compound?
**A.** The TGI was 13.5 µM.

**Q.** And the GI50 [29]?
**A.** Its GI50 is 1.76 µM.

**Q.** What about the TGI [29] of the same compound?
**A.** Its TGI is 15.2 µM.

**Q.** What about the GI50 [30] of the same compound?
**A.** The GI50 was 1.58 µM.

**Q.** What about the TGI [30] of the same compound?
**A.** Its TGI is 29.5 µM.

**Q.** What about the GI50 [31] of the same compound?
**A.** Its GI50 is 10.8 µM.

**Q.** And the TGI [31]?
**A.** The TGI was 27.7 µM.

**Q.** And the GI50 [32]?
**A.** Its GI50 is 1.61 µM.

**Q.** And the TGI [32]?
**A.** Its TGI is 14.4 µM.

**Q.** And the GI50 [33]?
**A.** The GI50 was 4.35 µM.

**Q.** And the TGI [33]?
**A.** The TGI was 21.2 µM.

**Q.** What about the GI50 [34] of the same compound?
**A.** The GI50 was 5.95 µM.

**Q.** What about the TGI [34] of the same compound?
**A.** Its TGI is 18.2 µM.

**Q.** And the GI50 [35]?
**A.** Its GI50 is 3.4 µM.

**Q.** What about the TGI [35] of the same compound?
**A.** Its TGI is 19.3 µM.

**Q.** What about the GI50 [36] of the same compound?
**A.** The GI50 was 3.62 µM.

**Q.** What about the TGI [36] of the same compound?
**A.** Its TGI is 17.1 µM.

**Q.** And the GI50 [37]?
**A.** The GI50 was 6.75 µM.

**Q.** And the TGI [37]?
**A.** The TGI was 31 µM.

**Q.** And the GI50 [38]?
**A.** The GI50 was 4.92 µM.

**Q.** And the TGI [38]?
**A.** Its TGI is 19.3 µM.

**Q.** What about the GI50 [39] of the same compound?
**A.** Its GI50 is 6.19 µM.

**Q.** What about the TGI [39] of the same compound?
**A.** The TGI was > 100 µM.

**Q.** What about the GI50 [40] of the same compound?
**A.** Its GI50 is 1.86 µM.

**Q.** And the TGI [40]?
**A.** Its TGI is 10.5 µM.

**Q.** And the GI50 [41]?
**A.** The GI50 was 10.8 µM.

**Q.** And the TGI [41]?
**A.** The TGI was 31.7 µM.

**Q.** And the GI50 [42]?
**A.** Its GI50 is 4.14 µM.

**Q.** What about the TGI [42] of the same compound?
**A.** Its TGI is 18.9 µM.

**Q.** And the GI50 [43]?
**A.** The GI50 was 3.36 µM.

**Q.** What about the TGI [43] of the same compound?
**A.** The TGI was 9.85 µM.

**Q.** And the GI50 [44]?
**A.** The GI50 was 6.34 µM.

**Q.** And the TGI [44]?
**A.** The TGI was > 100 µM.

**Q.** What about the GI50 [45] of the same compound?
**A.** The GI50 was 3.05 µM.

**Q.** What about the TGI [45] of the same compound?
**A.** The TGI was 15.9 µM.

**Q.** What about the GI50 [46] of the same compound?
**A.** The GI50 was 5.56 µM.

**Q.** What about the TGI [46] of the same compound?
**A.** Its TGI is 22.4 µM.

**Q.** And the GI50 [47]?
**A.** Its GI50 is 4.65 µM.

**Q.** What about the TGI [47] of the same compound?
**A.** The TGI was 38.7 µM.

**Q.** What about the GI50 [48] of the same compound?
**A.** The GI50 was 3.14 µM.

**Q.** And the TGI [48]?
**A.** Its TGI is 13.4 µM.

**Q.** What about the GI50 [49] of the same compound?
**A.** The GI50 was 0.958 µM.

**Q.** What about the TGI [49] of the same compound?
**A.** Its TGI is 23 µM.

**Q.** And the GI50 [50]?
**A.** Its GI50 is 5.77 µM.

**Q.** And the TGI [50]?
**A.** Its TGI is 48.9 µM.

**Q.** And the GI50 [51]?
**A.** Its GI50 is 11.7 µM.

**Q.** What about the TGI [51] of the same compound?
**A.** The TGI was 57.3 µM.

**Q.** What about the GI50 [52] of the same compound?
**A.** The GI50 was 2.78 µM.

**Q.** What about the TGI [52] of the same compound?
**A.** The TGI was 18.5 µM.

**Q.** And the GI50 [53]?
**A.** The GI50 was 3.01 µM.

**Q.** And the TGI [53]?
**A.** Its TGI is > 100 µM.

**Q.** What about the GI50 [54] of the same compound?
**A.** Its GI50 is 4.06 µM.

**Q.** And the TGI [54]?
**A.** Its TGI is 15.5 µM.

**Q.** What about the GI50 [55] of the same compound?
**A.** The GI50 was 4.19 µM.

**Q.** And the TGI [55]?
**A.** The TGI was 21.3 µM.

**Q.** What about the GI50 [56] of the same compound?
**A.** The GI50 was 1.55 µM.

**Q.** What about the TGI [56] of the same compound?
**A.** Its TGI is 13.2 µM.

Reference: PubChem BioAssay (NCI)
